Measured values from ChEMBL document CHEMBL1150443, “Synthesis and ion-binding properties of an immobilized bis-cysteine peptide” (Bioorg Med Chem Lett, 1992).
The source made the active and inactive calls. No cut-off for these calls is given here.

Assays:
[1] = Binding constant of the ion pair ( lithium picrate salt) to the peptide-matrix was calculated from the spectrophotometric determination of the free Na+ picrate salt after equilibration with the immobilized peptide in trifluoroethanol
[2] = Binding constant of the ion pair ( lithium picrate salt) to the peptide-matrix was calculated from the spectrophotometric determination of the free […] picrate salt after equilibration with the immobilized peptide in trifluoroethanol; NA=No affinity
[3] = Binding constant of the ion pair ( lithium picrate salt) to the peptide-matrix was calculated from the spectrophotometric determination of the free Li+ picrate salt after equilibration with the immobilized peptide in trifluoroethanol
[4] = Binding constant of the ion pair ( lithium picrate salt) to the peptide-matrix was calculated from the spectrophotometric determination of the free Li+ picrate salt after equilibration with the immobilized peptide in trifluoroethanol; NA=No affinity
[5] = Binding constant of the ion pair ( potassium picrate salt) to the peptide-matrix was calculated from the spectrophotometric determination of the free K+ picrate salt after equilibration with the immobilized peptide in trifluoroethanol; NA=No affinity
[6] = Binding constant of the ion pair ( sodium picrate salt) to the peptide-matrix was calculated from the spectrophotometric determination of the free Na+ picrate salt after equilibration with the immobilized peptide in trifluoroethanol

Log K [1]	Activity [2]	Log K [3]	Activity [4]	Activity [5]	KNa [6]	SMILES
2.11	inactive	2.6	–	–	–	CC(=O)N[C@@H]1CSSC[C@@H](NC(C)=O)C(=O)N2CCC[C@@H]2C(=O)N[C@H](C(C)C)C(=O)N[C@H](C(N)=O)CSSC[C@@H](C(N)=O)NC(=O)[C@@H](C(C)C)NC(=O)[C@H]2CCCN2C1=O
–	–	–	inactive	inactive	5200 M⁻¹	CC(=O)N[C@@H]1CSSC[C@@H](NC(C)=O)C(=O)N2CCC[C@@H]2C(=O)N[C@H](C(C)C)C(=O)N[C@H](C(=O)O)CSSC[C@@H](C(N)=O)NC(=O)[C@@H](C(C)C)NC(=O)[C@H]2CCCN2C1=O
